{"source": "patent US9303076B2", "about": "“Cell-penetrating peptides and uses thereof” (Hoffmann-La Roche Inc., priority 2010, dated 2016)", "key": {"[1]": {"system": "hCMEC/D3 brain endothelial cells", "assay": "uptake into brain endothelial cells (blood-brain-barrier cell culture model)", "assay_type": "cell-based", "conditions": "FITC-conjugated peptide (N- and C-terminal), 5 μM, 1 h, 37° C.; hCMEC/D3 or primary human brain endothelial cells", "procedure": "Fluorescein isothiocyanate (FITC)-conjugated NRTN peptides (N-terminal and C-terminal conjugation, respectively) were incubated with hCMEC/D3 brain endothelial cells at 5 μM for 1 h at 37° C. Subsequently, the cells were washed and fixed. Images were taken using a fluorescence microscope.\nIn order to evaluate potential interactions of the NRTN-derived peptide with endothelial cells forming the blood-brain-barrier, hCMEC/D3 cells or primary human brain endothelial cells were exposed to the NRTN-derived peptide in a blood-brain-barrier (BBB) model (Weksler, B. B. et al. (2005) FASEB J. 19, 1872-1874; Poller, B. et al. (2008) J. Neurochem. 107, 1358-1363). […] Thus, the NRTN-derived peptide localizes to a compartment that is important for BBB functionality (that is, for mediating and controlling transport across the BBB)."}, "MCF7 cells [2]": {"system": "MCF7 cells", "assay": "FACS analysis of internalization of FITC-labeled peptides", "assay_type": "cell-based, human", "procedure": "For FACS analysis, MCF7 cells (ATCC number HTB-22) were detached by 15 min incubation in accutase (an enzyme solution having proteolytic and collagenolytic activities; commercially available from various suppliers). After washing in FACS buffer (PBS containing 5% FCS), the cells were seeded in a 96 well, rounded bottom multi-well plate (Cat. No. 3799, Corning Inc., Corning, N.Y. USA) in a final density of 3×10^5 cells/ml and used immediately. The cells were incubated in the respective presence of 1 μM, 5 μM and 10 μM FITC-labeled peptides in OptiMEM medium for 3 hours at 37° C. Afterwards, the cells were washed in FACS buffer and incubated in proteinase K (0.02 mg/ml) containing buffer for 30 minutes at 37° C. The cells were washed twice and analyzed with the FACSCanto II (BD Biosciences; San Jose, Calif., USA) using the FITC channel.\nFor determining the internalization behavior of the CPPs identified in the screening procedures FITC-labeled derivates of said peptides (at 1 μM, 5 μM, and 10 μM, respectively) were analyzed by means of FACS. The following peptides were used: NRTN as a transfecting peptide, WNT16 as a non-transfecting peptide, FALL as a toxic peptide and TAT as a reference (positive control) (cf. FIG. 12). MCF7 cells were incubated in the presence of the fluorescent peptide derivatives for 3 hours at 37° C. in OptiMEM. Subsequently, the cells were treated with proteinase K for 30 minutes at 37° C. to remove surface bound peptides, and thus to ensure the monitoring only of internalized peptides. The cells were then washed in PBS and analyzed by FACS."}, "human Aha1 mRNA": {"system": "human Aha1 mRNA", "assay": "siRNA transfection in the presence of serum", "assay_type": "cell-based", "conditions": "serum-containing medium", "procedure": "NRTN was analyzed for its ability to transfect siRNA duplexes in the absence (A) and presence (B) of serum in the transfection medium. The experimental approach was the same as in FIG. 3. The assay was either carried out in normal RPMI 1640 growth medium containing 10% FCS (B) or for three hours in OptiMEM reduced serum medium followed by change of the medium back to normal growth medium (A). The mRNA values obtained at 1 μM were set to 100% to show dose dependent effects. Aha1 siRNA is shown as black filled squares; luciferase siRNA is shown as non-filled circles.\nMost of the assays described herein were performed under the “standard in vitro conditions” for the detection of peptide-mediated transfection that are well established in the art (see, e.g., Simeoni, F. et al. (2003) Nucleic Acids Res. 31, 2717-2724; Richard, J. P. et al. (2005) J. Biol. Chem. 280, 15300-15306; Abes, R. et al. (2007) Biochem. Soc. Trans. 35, 775-779; Kumar, P. et al. (2007) Nature 448, 39-43; Mueller, J. et al. (2008) Bioconjug. Chem. 19, 2363-2374; Sugita, T. et al. (2008) Br. J. Pharmacol. 153, 1143-1152). Accordingly, the incubation for the initial “transfection step” is performed under basically serum free conditions. The addition of serum at this step interferes with the transfection ability of the CPPs (cf. FIG. 13; see also Ignatovich, I. A. et al. (2003), supra). […]"}, "siRNA duplex": {"system": "siRNA duplex", "assay": "gel-shift assay of peptide/siRNA complex formation", "assay_type": "binding", "conditions": "ethidium bromide staining", "procedure": "Gel-shift assays were performed by mixing […] siRNA duplex with the respective peptides in a given molar ratio in water. The complexes were formed for 1 hour at 37° C. and analyzed on a 2.5% agarose gel with ethidium bromide (run: 40 minutes at 125 V). For proteinase K treatment, 1 μl proteinase K was added to a standard reaction as indicated above.\nMechanisms that may explain transfection functionalities of charged peptides such as TAT or protamine include the formation of complexes between positively charged peptides and negatively charged nucleic acids. Such complexes enable peptide-mediated membrane-interacting and/or endosome escape functionalities to transfer the complexed nucleic acids into the cytosol of cells (Law, M. et al. (2008) Biotechnol. Prog. 24, 957-963) In order to address whether the above mechanism may apply to the NTRN-derived peptide as well gel-shift assays were performed (cf. FIG. 8). To this end, siRNA was co-incubated with increasing concentrations of peptide, followed by analyses of their migration pattern via gel electrophoresis."}, "recombinant BCL2": {"target": "T1, recombinant BCL2 (Homo sapiens, UniProt P10415)", "T1 construct": "purchased Calbiochem/Merck, Darmstadt, Germany", "T1 sequence (P10415 whole entry, the tested form may be a part)": "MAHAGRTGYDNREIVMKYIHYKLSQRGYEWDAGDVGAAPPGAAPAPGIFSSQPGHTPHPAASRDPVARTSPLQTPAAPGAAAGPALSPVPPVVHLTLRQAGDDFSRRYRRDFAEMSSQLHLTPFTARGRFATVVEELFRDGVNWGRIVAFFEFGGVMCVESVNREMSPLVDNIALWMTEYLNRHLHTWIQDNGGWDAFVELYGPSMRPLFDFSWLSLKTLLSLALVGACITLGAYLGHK", "assay": "BCL2 binding to bead-immobilized peptides", "conditions": "iodoacetyl beads, elution buffer pH 2.8, protein stain", "procedure": "In order to determine whether the BCL2 binding properties of the Nur77-derived peptide are maintained in the NurNRTN fusion peptide, the respective NurNRTN and NRTN peptides were coupled to iodoacetyl beads (Pierce Biotechnology, Inc., Rockford, Ill., USA). The beads were incubated with recombinant BCL2 (Calbiochem/Merck, Darmstadt, Germany) and washed with PBS and 0.5 M NaCl, 0.025 NaN3, 0.05% Tween20 to remove unbound protein. Specific binding of BCL2 to the immobilized NurNTRN fusion peptide was determined by eluting bound […] from the beads with elution buffer (pH 2.8), transfer of the eluted fraction to nitrocellulose (Invitrogen Corporation, Carlsbad, Calif., USA), and protein detection by means of the MemCode Reversible Protein Stain Kit (Pierce Biotechnology, Inc., Rockford, Ill., USA)."}, "MCF7 cells [3]": {"system": "MCF7 cells", "description": "MCF7 cells were seeded at a density of 15.000 cells per well in 96 well plates. The cells were incubated for 24 hours at 37° C., 5% CO2 and 85% humidity in RPMI 1640 medium supplemented with 10% FCS (fetal calf serum) and L-glutamine. For functional assays, the cells were washed in OptiMEM medium and RPMI 1640 was replaced with OptiMEM (all reagents were purchased from Invitrogen Corporation, Carlsbad, Calif., USA). Complexes of siRNAs and peptides were formed by incubation of 100 nM siRNA with the indicated peptide concentrations in OptiMEM for 30 minutes at room temperature. The complexes were added to the cells and incubated for 3 hours. Subsequently, OptiMEM was replaced with normal RPMI 1640 growth medium. The cells were incubated for further 21 hours for generating bDNA lysates, and for further 45 hours for performing CellTiter-Glo or CytoTox-Glo assays (cf. below).\nIn order to measure the number of living cells the CellTiter-Glo Luminescent Cell Viability Assay (Promega Corporation, Madison, Wis., USA) was used according to the protocol of the manufacturer. The cells were incubated for 48 hours in the presence of peptides and siRNAs. Subsequently, the cells are lysed, and a luminescent signal proportional to the amount of ATP present is generated which, in turn, is proportional to the number of living cells present. Luminescence was analyzed in an InfiniteF200 luminescence reader.\nBased on this observation, GAPDH mRNA levels were used as a general readout for toxicity: an average measurement of 100% GAPDH mRNA relative to the medium control was considered as non-toxic, values between 99% and 70% as moderate toxic, and values of less than 70% as toxic (cf. FIG. 3).\nSimilarly, peptides resulting in GAPDH mRNA values >70% were classified as “nontoxic”, whereas peptides that caused a reduction of GAPDH mRNA to lesser values were termed “toxic”."}}, "note": "Entries after “also recorded” stand apart in the source; their conditions may differ."}
{"sequence": "GAAEAAARVYDLGLRRLRQRRRLRRERVRA (NRTN peptide sequence; listed as Homo sapiens)", "values": [{"measurement": "uptake / localization in brain endothelial cells", "setting": "[1]", "result": "accumulates (i.e. internalizes) under these assay conditions in endosomal structures; also recorded: localizes to intracellular endosomal structures"}, {"measurement": "internalization into cells (FACS, FITC channel)", "setting": "MCF7 cells [2]; FITC-labeled peptide 1, 5, 10 μM, 3 hours at 37° C., proteinase K treated", "result": "internalized into MCF7 cells"}, {"measurement": "change of internalization with concentration", "setting": "MCF7 cells [2]; increasing the concentration from 5 μM to 10 μM", "result": "strong increase in internalization"}, {"measurement": "transfection in the presence of medium with reduced serum concentration", "setting": "human Aha1 mRNA", "result": "can still mediate transfection"}, {"measurement": "complex formation with siRNA", "setting": "siRNA duplex", "result": "able to form stable complexes with siRNA"}, {"measurement": "BCL2 in eluates from peptide-coated beads", "setting": "recombinant BCL2", "result": "very small amounts of BCL2 were eluted"}, {"measurement": "peptide concentration at which cell growth/viability was affected", "setting": "MCF7 cells [3]", "result": "above 10 μM"}]}
